Consider 25 compounds from publication PMC7942396, “Drug Repurposing Screen for Compounds Inhibiting the Cytopathic Effect of SARS-CoV-2” (Frontiers in Pharmacology, 2021).

Several values for one entry are separate records, joined by “and”; a condition that tells them apart may be missing. Equal entries are not always repeated. Structures can show the parent of a compound that is named as a salt. Where two headings read alike, the source gives them in different places.

The conditions of series [1]: human, cited from earlier work; for Cmax: Single dose 600 mg PO, ref Winstanley et al. (1987).
The nature of series [2]: in vitro. The note with it: African green monkey.
The test system of series [3] is SARS-CoV-2 (USA_WA1/2020). Kind of series: microbe, parasite or virus in culture. The series is classed as cell-based.
Series [4] concerns SARS-CoV-2. The arrangement: method as in Stanford University, 2020. The note with it: Vero E6 cells; ref Stanford University, 2020; read-out: EC50 against SARS-CoV-2; cited from earlier work.
For series [5], the system named is SARS-CoV-2. The arrangement: method as in Stanford University, 2020. The note with it: Calu-3 or Huh7 cell lines; ref Stanford University, 2020; read-out: EC50 against SARS-CoV-2; cited from earlier work.
In series [6] the test system is Vero E6 cells. Kind of series: cells. The note with it: Chlorocebus sabaeus, Vero C1008, read-out: % Viability: IC50.
The subject of series [7] is P-glycoprotein (P-gp). On the set-up: method as in EMA, 2020. The note with it: ref EMA, 2020; cited from earlier work.
Series [8] relates to Ebola virus. The note with it: ref Kouznetsova et al., 2019; read-out: EC50, block of Ebola viral entry; cited from earlier work.
Series [9] deals with Vero E6 cells. The note with it: Vero E6 cells without virus, 72 h.
Series [10] relates to SARS-CoV. The note with it: ref Barnard et al., 2008; read-out: EC50, inhibition of SARS-CoV replication; cited from earlier work.
The mark [11] stands for this setting: Severe acute respiratory syndrome coronavirus 2, Vero C1008, read-out: CPE % Efficacy.
[12] abbreviates: Severe acute respiratory syndrome coronavirus 2, Vero C1008, 72 h; read-out: CPE EC50.
[13] abbreviates: Severe acute respiratory syndrome coronavirus 2, Vero C1008; […]; DMSO 0%, no-virus control 100%; hit confirmation; read-out: CPE % efficacy.
Setting [14] is: Severe acute respiratory syndrome coronavirus 2, Vero C1008, SARS-CoV-2 CPE assay, Vero E6 cells; confirmed anti-SARS-CoV-2 compounds; read-out: CPE EC50.
The mark [15] stands for this setting: Severe acute respiratory syndrome coronavirus 2, Vero C1008; SARS-CoV-2 CPE assay, Vero E6 cells; efficacy; read-out: CPE % Efficacy.
Where [16] appears, read: Severe acute respiratory syndrome coronavirus 2, Vero C1008; SARS-CoV-2 CPE assay, Vero E6 cells; read-out: CPE % Efficacy.
Where [17] appears, read: Severe acute respiratory syndrome coronavirus 2, Vero C1008; SARS-CoV-2 CPE assay, Vero E6 cells; read-out: CPE EC50.

For the compound `CNCCCC12CCC(c3ccccc31)c1ccccc12` [Maprotiline hydrochloride, reference compound], the “Elimination T1/2” value in series [1] (Single dose 75 mg PO, ref Maguire et al. (1980)) is given as 45 h. This compound displayed a cytotoxicity in series [2] of less than 30%. Further, in [3] (setting [11]), the Emax was found to be 104%.

`CCC(CC)COC(=O)[C@H](C)N[P@](=O)(OC[C@H]1O[C@@](C#N)(c2ccc3c(N)ncnn23)[C@H](O)[C@@H]1O)Oc1ccccc1` [Remdesivir, reference compound]: the EC50 in series [4] is greater than 1000 nM; in [5] it was greater than 50 nM; in [3] (setting [12]), 10 µM; in series [3] (Severe acute respiratory syndrome coronavirus 2, Vero C1008, independent runs of primary screens and hit confirmation; read-out: EC50 in the CPE assay, control concentration-response per run), 4.56 µM; in series [3] (independent runs of primary screens and hit confirmation; listed as remdesivir; read-out: EC50 in the CPE assay, control concentration-response per run) it was 5.17 µM; in [3] (independent runs of primary screens and hit confirmation; read-out: EC50 in the CPE assay, control concentration-response per run), 4.42 µM and 7.28 µM. Besides, in series [2], the cytotoxicity was less than 30%. In addition, the IC50 in series [6] is greater than 30 µM; in series [3] (Severe acute respiratory syndrome coronavirus 2, Vero C1008, printed in picture of Figure 2B, one value per run; read-out: % CPE Rescue: IC50), 4.56 µM. For the same compound, the Emax in series [3] (setting [13]) came out at 133%. Moreover, the “Substrate of Pgp” value in series [7] was “substrate of Pgp”.

For `COC(=O)[C@H]1[C@H]2C[C@@H]3c4[nH]c5ccccc5c4CCN3C[C@H]2C[C@@H](OC(=O)c2cc(OC)c(OC)c(OC)c2)[C@@H]1OC` [Deserpidine, reference compound], the “Elimination T1/2” value in [1] (Single dose 0.25 mg PO, ref Zhang et al. (2009)) is listed as 42.9 ± 17.8 h. Also, in [2], the cytotoxicity at 72 h is less than 30%. Moreover, the EC50 in series [3] (setting [12]) is 10 µM. The Emax in series [3] (setting [13]) came to 84.7%.

In series [2], `CC(=O)c1ccc2c(c1)N(CCCN1CCC(CCO)CC1)c1ccccc1S2` [Piperacetazine, reference compound] came in with a cytotoxicity of less than 30%. Besides, the EC50 in [3] (setting [12]) was 10 µM; in series [8], 9.68 µM. For the same compound, the Emax in [3] (setting [13]) was determined as 104%.

`CN(C)C(=O)C(CCN1CCC(O)(c2ccc(Cl)cc2)CC1)(c1ccccc1)c1ccccc1` [Loperamide hydrochloride, reference compound]: the “Elimination T1/2” value in series [1] (Single dose 2 mg PO, ref Janssen Pharmaceutica Inc. (1998)) was 9.1 to 14.4 h. Also, in series [2], the cytotoxicity was less than 30%. Also, in series [3] (setting [13]), the Emax is 98.6%.

On to `CNCC[C@H](Oc1cccc2ccccc12)c1cccs1` [Duloxetine hydrochloride, reference compound], for which, in series [1] (60 mg BID PO, ref Knadler et al. (2011)), the “Elimination T1/2” value is 6.96 to 14.9 h. In series [2], this compound returned a cytotoxicity of less than 30%. Also, the EC50 in series [3] (Severe acute respiratory syndrome coronavirus 2, Vero C1008, 72 h, read-out: CPE EC50) is 10 µM. Moreover, in [3] (setting [11]), the Emax turned out to be 90%.

For `CCN(CC)Cc1cc(Nc2ccnc3cc(Cl)ccc23)ccc1O.Cl.Cl.O.O` [Amodiaquine dihydrochloride, reference compound], the “% Cytotox” value in [9] was less than 30%. For the same compound, the figures for the Cmax in series [1] and in series [1] (read-out: Cmax) were 32 ± 3 ng/mL and 69 nM, respectively. In series [3] ([…]; DMSO 0%, no-virus control 100%; hit confirmation), this compound gave a CPE % Efficacy of 87.2%. Besides, the EC50 in series [3] (read-out: CPE EC50) was 4 µM.

As to `CN(C)CC/C=C1/c2ccccc2Sc2ccc(Cl)cc21` [Chlorprothixene, reference compound], the “Elimination T1/2” value in series [1] (Single dose 100 mg IV, ref Bagli et al. (1996)) is 25.8 ± 13.6 h. The compound also yielded a cytotoxicity in series [2] of less than 30%. The EC50 in [3] (setting [12]) was 10 µM; in [10], roughly 10 µM. The Emax in series [3] (setting [13]) was found to be 104%.

`COc1ccc2c(c1)N(C[C@H](C)CN(C)C)c1ccccc1S2` [Methotrimeprazine maleate, reference compound]: the “Elimination T1/2” value in [1] (Single dose 25 mg PO, ref AA Pharma Inc. (2012)) is 10.8 h. In series [2], this compound returned a cytotoxicity at 72 h of less than 30%. Moreover, the EC50 in series [3] (setting [12]) was 10 µM; in [10] it was roughly 10 µM. In addition, the Emax in series [3] (setting [13]) is 84.6%.

Compound `CCCCN(CCCC)CCC(O)c1cc2c(Cl)cc(Cl)cc2c2cc(C(F)(F)F)ccc12` (stereo not shown) [Halofantrine] gave a cytotoxicity in [2] of 37.6%. Further, the EC50 in [3] (setting [14]) stood at 5.62 µM. In [3] (setting [15]), the Emax came to 73.4%.

Regarding `Clc1ccc2c(c1)C(N1CCNCC1)=Nc1ccccc1O2` [Amoxapine], the cytotoxicity in [2] was 13.9%. Moreover, in series [3] (setting [15]), the Emax was 34.1%.

In series [2], `CN(C)CCOC(c1ccccc1)c1ccc(Br)cc1` (stereo not shown) [Bromodiphenhydramine] came in with a cytotoxicity at 72 h of 0%. In addition, the Emax in series [3] (setting [16]) stood at 36%. The EC50 in [3] (setting [17]) is 12.6 µM.

Take `CN1CCC[C@@H]1CCO[C@](C)(c1ccccc1)c1ccc(Cl)cc1` [Clemastine fumarate, reference compound]: the “Elimination T1/2” value in [1] (Single dose 1.34 mg PO, ref Schran et al. (1996)) was 21.3 ± 11.6 h. The compound also registered a cytotoxicity in series [2] of less than 30%.

For the compound `CC(=O)Oc1ccccc1C(=O)Nc1ncc([N+](=O)[O-])s1` [Nitazoxanide], in series [2], the CC50 at 72 h turned out to be 12.6 µM and the cytotoxicity at 72 h stood at 54.7%. Further, the EC50 in series [3] (setting [14]) was found to be 6.31 µM. In addition, the Emax in [3] (setting [15]) is 73.7%.

In series [2], `Clc1ccc2c(c1)N=C(N1CCNCC1)c1ccccc1N2` [N-Desmethylclozapine] showed a CC50 at 72 h of 10 µM and a cytotoxicity at 72 h of 20.1%. In series [3] (setting [16]), the Emax worked out at 31.1%. In addition, the EC50 in series [3] (setting [17]) was determined as 14.1 µM.

`CN(C)CCCN1c2ccccc2Sc2ccccc21` [Promazine hydrochloride]: in series [2], the cytotoxicity is 9.4%. Further, the EC50 in series [3] (setting [14]) was found to be 10 µM. Also, the Emax in [3] (setting [15]) is 55.8%.

Turning to `CNCCC(Oc1ccc(C(F)(F)F)cc1)c1ccccc1` (racemic) [(+/-) -Fluoxetine, reference compound], the “Elimination T1/2” value in series [1] (Single dose 40 mg PO, ref Eli Lilly and Company (1987)) was 24 to 72 h. Also, the cytotoxicity in [2] was less than 30%. In addition, the Emax in series [3] (setting [13]) was 116%.

In [2], `CCOC(=O)[C@H](CCc1ccccc1)N[C@H]1CCc2ccccc2N(CC(=O)O)C1=O` [Benazepril] returned a cytotoxicity of 0%. For the same compound, the Emax in [3] (setting [16]) was 108%. In addition, in series [3] (setting [17]), the EC50 was 12.6 µM.

In [2], `O=C(/C=C/c1ccccc1)NC(NC(=S)Nc1cccc2cccnc12)C(Cl)(Cl)Cl` (stereo not shown) [Salubrinal] displayed a CC50 of 5.01 µM and a cytotoxicity of 15.9%. Moreover, the EC50 in series [3] (setting [14]) was 10 µM. Also, the Emax in [3] (setting [15]) came to 38.3%.

In [2], `CN1CCC(=C2c3ccccc3C=Cc3ccccc32)CC1` [Cyproheptadine hydrochloride] displayed a CC50 of 12.6 µM and a cytotoxicity of 20.2%. The Emax in series [3] (setting [15]) was 50%.

The compound `Cc1nc(Nc2ccc(F)cc2)nc(N2CCc3ccccc3C2C)c1C` (stereo not shown) [Revaprazan HCl] registered a cytotoxicity at 72 h in series [2] of 49.9%. The EC50 in series [3] (setting [14]) amounted to 5.01 µM. Also, the Emax in series [3] (setting [15]) is 60.4%.

Consider `CN1CCCN(C(c2ccccc2)c2ccc(Cl)cc2)CC1` (stereo not shown) [Homochlorcyclizine], for which, in [2], the CC50 is 12.6 µM and the cytotoxicity is 34.2%. Also, the EC50 in [3] (setting [14]) turned out to be 10 µM. The Emax in [3] (setting [15]) is 84.3%.

In series [2], `COc1ccc2cc1Oc1ccc(cc1)C[C@H]1c3c(cc4c(c3Oc3cc5c(cc3OC)CCN(C)[C@@H]5C2)OCO4)CCN1C` [Cepharanthine] had a CC50 of 11.2 µM and a cytotoxicity of 105%. Moreover, the EC50 in series [3] (setting [14]) was determined as 1.41 µM. Besides, the Emax in [3] (setting [15]) is 91.3%.

Turning to `CNCCCN1c2ccccc2CCc2ccccc21` [Desipramine hydrochloride], in series [2], the CC50 was 5.01 µM and the cytotoxicity worked out at 9.2%. Also, in series [3] (setting [14]), the EC50 was 11.2 µM. Further, the Emax in series [3] (setting [15]) came out at 43.7%.

Take `COc1cc(O)c2c(c1)[C@H]1O[C@@H]1C[C@H](O)[C@H](O)C(=O)/C=C\C[C@H](C)OC2=O` [Hypothemycin]: in series [2], the CC50 amounted to 12.6 µM and the cytotoxicity was determined as 60.1%. In series [3] (setting [16]), the Emax was 81.2%. Besides, in series [3] (setting [17]), the EC50 worked out at 12.6 µM.

Broadly, the IC50 is the concentration at which inhibition is half-maximal. In general, Cmax refers to the peak of the concentration-time curve.
